Values joined by “and” are separate entries in the source; they are usually repeats but may differ in a detail not shown here. Identical values can stand only once.
Experiments:
Type in all cases: cell-based
[1] = test system: Botryococcus braunii UTEX 2441; assay: Complex nitrogen sources on heterotrophic growth with glucose; settings: UTEX 2441, 1% glucose + 10 mM Urea, dark, 4 weeks
Procedure: (§1) The following experiment was done with UTEX 572, UTEX 2441, and N-836 in 20 ml of BG11 plus:
(§2) 1% glucose+2 g/L hydrolyzed casein

[2] = test system: Botryococcus braunii UTEX 572; assay: as above; settings: dark, 4 weeks
Procedure: as §1, §2

[3] = test system: Botryococcus braunii UTEX 2441; assay: Different fixed carbon sources on heterotrophic growth, visual score; set-up: key to heterotrophic growth score, 0.1% / heterotrophic growth score, 0.5% / heterotrophic growth score, 1%: Growth was scored with +'s by visual examination of the cultures; ++: Growth was scored with +'s by visual examination of the cultures; +++: Growth was scored with +'s by visual examination of the cultures; ++++: Growth was scored with +'s by visual examination of the cultures; +++++: Growth was scored with +'s by visual examination of the cultures; settings: for heterotrophic growth score, 0.1%: UTEX 2441, 0.1% carbon source in 1 ml BG11, dark; for heterotrophic growth score, 0.1% / heterotrophic growth score, 0.5% / heterotrophic growth score, 1%: 4 weeks; for heterotrophic growth score, 0.5%: UTEX 2441, 0.5% carbon source in 1 ml BG11, dark; for heterotrophic growth score, 1%: UTEX 2441, 1% carbon source in 1 ml BG11, dark; for heterotrophic growth on carbon source, in words: UTEX 2441, dark
Procedure: (§3) All carbon sources were tested at three different concentrations; 0.1%, 0.5% and 1%. Cultures were grown in 24 well plates for 4 weeks in the dark in 1 ml BG11 plus fixed carbon. Control cultures were grown in BG-11 media under phototrophic conditions without a fixed carbon source. Growth was scored with +'s by visual examination of the cultures (see Table 7). UTEX 572 grew best in glucose, however there was also growth on mannose, galactose and fructose. UTEX 2441 preferred mannose in the dark but there was some growth in galactose, fructose and glycerol.

[4] = test system: Botryococcus braunii UTEX 572; assay: as above; set-up: key to heterotrophic growth score, 0.1% / heterotrophic growth score, 0.5% / heterotrophic growth score, 1%: Growth was scored with +'s by visual examination of the cultures; ++: Growth was scored with +'s by visual examination of the cultures; +++: Growth was scored with +'s by visual examination of the cultures; ++++: Growth was scored with +'s by visual examination of the cultures; +++++: Growth was scored with +'s by visual examination of the cultures; settings: for heterotrophic growth score, 0.1%: UTEX 572, 0.1% carbon source in 1 ml BG11, dark; for heterotrophic growth score, 0.1% / heterotrophic growth score, 0.5% / heterotrophic growth score, 1%: 4 weeks; for heterotrophic growth score, 0.5%: UTEX 572, 0.5% carbon source in 1 ml BG11, dark; for heterotrophic growth score, 1%: UTEX 572, 1% carbon source in 1 ml BG11, dark; for heterotrophic growth on carbon source, in words: UTEX 572, dark
Procedure: as §3

[5] = test system: Botryococcus braunii N-836; assay: as above; set-up: key to heterotrophic growth score, 0.1% / heterotrophic growth score, 0.5% / heterotrophic growth score, 1%: Growth was scored with +'s by visual examination of the cultures; ++: Growth was scored with +'s by visual examination of the cultures; +++: Growth was scored with +'s by visual examination of the cultures; ++++: Growth was scored with +'s by visual examination of the cultures; +++++: Growth was scored with +'s by visual examination of the cultures; settings: for heterotrophic growth score, 0.1%: N-836, 0.1% carbon source in 1 ml BG11, dark; for heterotrophic growth score, 0.1% / heterotrophic growth score, 0.5% / heterotrophic growth score, 1%: 4 weeks; for heterotrophic growth score, 0.5%: N-836, 0.5% carbon source in 1 ml BG11, dark; for heterotrophic growth score, 1%: N-836, 1% carbon source in 1 ml BG11, dark; for heterotrophic growth on carbon source, in words: N-836, dark
Procedure: as §3

[6] = test system: Botryococcus braunii UTEX 2441; assay: Mixotrophic growth with fixed carbon source in BG11 media in light; settings: for DCW / DCW mg/15 ml.: three weeks
Procedure: (§4) Modified BG-11 (17.65 mM NaNO3, 0.23 mM K2PO4, 0.3 mM MgSO4.7H2O, 0.25 mM CaCl2.2H2O, 0.189 mM Na2CO3, 0.03 mM citric acid monohydrate, 0.023 mM ferric ammonium citrate, 0.046 mM H3BO3, 9.15 μM MnCl2.4H2O, 0.77 μM ZnSO4.7H2O, 0.32 μM CuSO4.5H2O, 0.21 μM CoCl2.6H2O, 1.62 μM NaMoO4.2H2O, 2.69 μM Na2EDTA, 9 mg/l Tricine, 1.99 μM Thiamine-HCl, 0.006 μM Cyanocobalamine, 0.044 μM Calcium Pantothenate, 0.29 μM p-aminobenzoic acid, soil water). […] Dry cell weight (DCW) were measured after three weeks for the glycerol samples.

[7] = test system: Botryococcus braunii UTEX 572; assay: as above; settings: for DCW / DCW mg/15 ml.: three weeks
Procedure: as §4

[8] = UTEX 572, 1% glucose + 10 mM Urea
[9] = UTEX 2441, 0.75% glycerol in BG11, light
[10] = UTEX 2441, 1% glycerol in BG11, light
[11] = UTEX 2441, 1.5% glycerol in BG11, light
[12] = UTEX 572, 0.75% glycerol in BG11, light
[13] = UTEX 572, 1% glycerol in BG11, light
[14] = UTEX 572, 1.5% glycerol in BG11, light

SMILES | heterotrophic growth score, 0.1% [3] | heterotrophic growth score, 0.5% [3] | heterotrophic growth score, 1% [3] | heterotrophic growth score, 0.1% [4] | heterotrophic growth score, 0.5% [4] | heterotrophic growth score, 1% [4] | heterotrophic growth score, 0.1% [5] | heterotrophic growth score, 0.5% [5] | heterotrophic growth score, 1% [5] | heterotrophic growth on carbon source, in words [3] | heterotrophic growth on carbon source, in words [4] | heterotrophic growth on carbon source, in words [5] | also measured
NC(N)=O [Urea, urea] | – | – | – | – | – | – | – | – | – | – | – | – | DCW [1]: 0.10 g/L and 0.067 g/L; DCW mg/3 m1. [1]: 0.3 mg/3 m1 and 0.2 mg/3 m1; increased growth over glucose only culture ([2]; UTEX 572, 10 mM urea + 1% glucose): 76%; DCW [2, 8]: 0.467 g/L; DCW mg/3 m1. [2, 8]: 1.4 mg/3 m1
CC(=O)[O-].[Na+] [acetate, sodium acetate] | ++ | ++ | ++ | + | + | + | + | + | + | – | – | – | –
O=C[C@@H](O)[C@H](O)[C@H](O)CO [arabinose] | ++ | ++ | ++ | + | + | + | + | + | + | – | – | – | –
O=C(CO)[C@@H](O)[C@H](O)[C@H](O)CO [fructose] | ++ | +++ | +++ | ++ | ++ | ++ | + | + | ++ | some growth | growth | heterotrophic growth | –
O=C[C@H](O)[C@@H](O)[C@@H](O)[C@H](O)CO [galactose] | ++ | +++ | ++ | ++ | +++ | +++ | ++ | ++ | ++ | some growth | growth | heterotrophic growth | –
OCC(O)CO [glycerol] | ++ | +++ | +++ | + | + | + | + | + | + | some growth | – | – | DCW [6, 9]: 0.273 g/L and 0.286 g/L; DCW mg/15 ml. [6, 9]: 4.1 mg/15 ml and 4.3 mg/15 ml; DCW [6, 10]: 0.22 g/L and 0.32 g/L; DCW mg/15 ml. [6, 10]: 3.3 mg/15 ml and 4.8 mg/15 ml; DCW [6, 11]: 0.24 g/L and 0.286 g/L; DCW mg/15 ml. [6, 11]: 4.3 mg/15 ml and 4.7 mg/15 ml; increased growth with glycerol ([6]; UTEX 2441, light, mixotrophic): 66%; DCW [7, 12]: 0.273 g/L and 0.206 g/L; DCW mg/15 ml. [7, 12]: 4.1 mg/15 ml and 3.1 mg/15 ml; DCW [7, 13]: 0.267 g/L and 0.20 g/L; DCW mg/15 ml. [7, 13]: 4.0 mg/15 ml and 3.0 mg/15 ml; DCW [7, 14]: 0.24 g/L and 0.293 g/L; DCW mg/15 ml. [7, 14]: 3.6 mg/15 ml and 4.4 mg/15 ml; difference in growth with or without glycerol ([7]; UTEX 572, light, mixotrophic): marginal difference
